Results reported in patent US20230277534A1 (Plexxikon Inc., priority 2011, published 2023).

What was measured:
B-Raf V600E = B-Raf V600E (Homo sapiens (Human), UniProt P15056, V600E); experiment: B-Raf V600E kinase biochemical activity assay (AlphaScreen, biotin-MEK1 substrate); conditions: 100 μM ATP
In short: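 B-Raf V600E (0.1 ng) phosphorylated 100 nM biotin-MEK1 with 100 μM ATP (final) in HEPES pH 7.0 with Mg2+/Mn2+ for 45 min at room temperature. Compounds were tested over an 8-point serial dilution. Phospho-MEK1/2 was detected by AlphaScreen after 3 h with beads, and IC50 came from signal versus concentration.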

[1] = test system: COLO205 colon adenocarcinoma cells (B-Raf V600E mutation); experiment: COLO205 cell growth inhibition (ATPlite); type: cell-based; conditions: Homo sapiens, COLO 205, 72 h, 3 days
In short: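 Cells treated for 3 days at 37 °C, 5% CO2 with an 8-point 1:3 dilution series, top final concentration 10 μM, DMSO control. ATPlite luminescence used as a measure of cell number; IC50 from reading versus concentration.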

[2] = test system: A375 melanoma cells (B-Raf V600E mutation); experiment: A375 (A375_P-ERK) cell activity / cell growth inhibition; type: cell-based; conditions: Homo sapiens, A-375
Experimental: Compounds are assessed in a variety of cell based assays.
On day 1, cells are counted, then centrifuged in a conical tube for 5 minutes at 1000 rpm.
On day 2, compound at a maximum concentration of 5 mM is serially diluted 1:3 (e.g. 10 μL with 30 μL dimethyl sulfoxide) for a total of 8 point titration with DMSO as a control. A 1 μL aliquot of each dilution point and control is added to 249 μL growth media and 50 μL is added to a well containing cells, providing 10 μM compound at the maximum concentration point. The cells are incubated for 3 days at 37° C. in 5% CO2.
ATPlite is added 25 μL to each well, shake for 2 minutes, and the cells are incubated at room temperature for 10 minutes, then luminescence is read on Safire reader. The measured luminescence correlates directly with cell number, such that the reading as a function of compound concentration is used to determine the IC50 value.

B-Raf V600E, sequence (P15056 whole entry V600E): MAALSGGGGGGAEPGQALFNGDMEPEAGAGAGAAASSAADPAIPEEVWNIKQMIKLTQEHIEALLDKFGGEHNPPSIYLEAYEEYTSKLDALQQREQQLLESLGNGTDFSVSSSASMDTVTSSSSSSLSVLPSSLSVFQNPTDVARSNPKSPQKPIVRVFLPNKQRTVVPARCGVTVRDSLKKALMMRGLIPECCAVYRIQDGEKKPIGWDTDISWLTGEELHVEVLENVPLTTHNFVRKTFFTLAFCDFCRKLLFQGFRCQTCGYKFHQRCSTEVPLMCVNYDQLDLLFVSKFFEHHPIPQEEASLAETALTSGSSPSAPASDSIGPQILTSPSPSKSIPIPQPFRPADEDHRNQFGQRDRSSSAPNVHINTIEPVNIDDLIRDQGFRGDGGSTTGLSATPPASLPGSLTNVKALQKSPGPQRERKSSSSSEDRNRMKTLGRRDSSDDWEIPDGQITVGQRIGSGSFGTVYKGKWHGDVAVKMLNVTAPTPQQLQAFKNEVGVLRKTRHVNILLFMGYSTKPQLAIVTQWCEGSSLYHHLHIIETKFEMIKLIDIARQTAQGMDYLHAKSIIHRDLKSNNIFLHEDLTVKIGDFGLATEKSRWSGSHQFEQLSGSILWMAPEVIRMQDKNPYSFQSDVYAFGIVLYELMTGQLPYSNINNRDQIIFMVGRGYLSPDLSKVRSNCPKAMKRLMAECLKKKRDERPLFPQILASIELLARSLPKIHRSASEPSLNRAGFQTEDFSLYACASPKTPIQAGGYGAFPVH

CC(C)N(C)S(=O)(=O)Nc1cccc(C(=O)c2c[nH]c3ncc(-c4cnc(C5CC5)nc4)cc23)c1F [Compound P-0233, 5-(2-cyclopropylpyrimidin-5-yl)-3-[2-fluoro-3-[[isopropyl(methyl)sulfamoyl]amino]benzoyl]-1H-pyrrolo[2,3-b]pyridine]
IC50 (B-Raf V600E): < 0.1 µM
IC50 [1]: > 1 µM
IC50 [2]: > 1 µM
